Laboratory results reported in paper PMC9683047, “Design, synthesis and biological evaluation of 4-aminoquinoline derivatives as receptor-interacting protein kinase 2 (RIPK2) inhibitors” (Journal of Enzyme Inhibition and Medicinal Chemistry, 2022).

What was measured:
RIPK2 = biological target: T1, RIPK2 (Homo sapiens, UniProt O43353); test: Lipophilic ligand efficiency (LipE); conditions: LipE = pIC50 − ClogP
T1 construct: purchased Promega

[1] = system: MDP-induced TNF-α secretion in Raw264.7; test: TNF-α secretion in MDP-induced Raw264.7 (ELISA); format: cell-based, mouse; conditions: Raw264.7, compounds 1 h then L18-MDP 20 µg/mL 24 h, series concentration
Method: Raw 264.7 was cultured in DMEM containing 10% (w/v) foetal bovine serum (FBS). Cell were seeded at a density of 1 × 10^5 cells/well in a 48 well plate overnight, then cells were treated with different concentrations of compounds for1h, following by stimulated with L18-MDP (20 µg/mL, Invivogen) for 24 h. The Cell supernatants were harvested for enzyme-linked immunosorbent assay (ELISA).
TNFα commercial ELISA kits (DAKEWE) were used to detect TNFα in cell culture supernatants according to the manufacturer’s instructions. The concentration of cytokines was determined using multiwell spectrophotometer (SpetraMAX PLUS, Molecular Devices).

[2] = Human liver microsome stability; format: in vitro ADME; conditions: human liver microsomes
AO oxidase = biological target: T2, AO oxidase (Homo sapiens, UniProt Q06278); test: AO oxidative metabolism in human liver cytosol; format: in vitro ADME; conditions: human liver cytosol incubation; inhibitors raloxifene and menadione
T2 construct: could undergo mono oxidative metabolism in the human liver cytosol incubation system; from tissue; host or cells: human liver cytosol
Method: However, we have done experiment on AO oxidative metabolism of compound 14 and P5. Both compound 14 and P5 could undergo mono oxidative metabolism in the human liver cytosol incubation system.

ALK(h) = biological target: T3, ALK(h) (Homo sapiens, UniProt Q9UM73); test: Kinase selectivity panel: ALK; format: biochemical; conditions: 1 µM
T3 construct: purchased Eurofins (Millipore) KinaseProfiler Diversity Panel
Method: (§1) To confirm the anti-inflammatory effect was caused by RIPK2 inhibition, compound 14 was subjected to kinase selectivity evaluation (Figure 4). Kinase selectivity profile of compound 14 as shown by the diversity kinase Panel screen against 70 kinases assayed at 1 µM. Among all tested 70 kinases, only five were inhibited over 90% at 1 µM including Fyn, Lyn, BTK, Abl and RIPK2. Three kinases including KDR, CDK9 and LOK were inhibited 50–90% at 1 µM.

Aurora-A(h) = biological target: T4, Aurora-A(h) (Homo sapiens, UniProt O14965); test: Kinase selectivity panel: Aurora-A; format: biochemical; conditions: 1 µM
T4 construct: purchased Eurofins (Millipore) KinaseProfiler Diversity Panel
Method: as §1

BTK(h) = biological target: T5, BTK(h) (Homo sapiens, UniProt Q06187); test: Kinase selectivity panel: BTK; format: biochemical
T5 construct: purchased Eurofins (Millipore) KinaseProfiler Diversity Panel
T5 sequence (Q06187 whole entry): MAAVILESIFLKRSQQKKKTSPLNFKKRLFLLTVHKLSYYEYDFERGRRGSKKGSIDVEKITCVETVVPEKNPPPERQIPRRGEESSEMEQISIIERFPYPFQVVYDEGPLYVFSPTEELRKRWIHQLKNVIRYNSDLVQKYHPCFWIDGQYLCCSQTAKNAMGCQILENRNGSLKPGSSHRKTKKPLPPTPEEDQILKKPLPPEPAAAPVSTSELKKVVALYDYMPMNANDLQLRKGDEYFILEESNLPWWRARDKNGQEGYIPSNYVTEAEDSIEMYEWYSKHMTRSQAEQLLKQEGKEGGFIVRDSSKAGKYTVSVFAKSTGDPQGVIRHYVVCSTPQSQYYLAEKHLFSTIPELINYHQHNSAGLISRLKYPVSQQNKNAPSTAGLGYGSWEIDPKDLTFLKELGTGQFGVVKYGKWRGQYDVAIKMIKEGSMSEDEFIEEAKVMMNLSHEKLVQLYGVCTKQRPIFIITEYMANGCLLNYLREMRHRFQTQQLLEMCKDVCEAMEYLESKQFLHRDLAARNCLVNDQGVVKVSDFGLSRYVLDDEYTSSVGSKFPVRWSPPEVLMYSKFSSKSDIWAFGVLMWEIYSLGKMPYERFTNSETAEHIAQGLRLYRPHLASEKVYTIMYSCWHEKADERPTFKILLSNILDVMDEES
Method: as §1

CaMKI(h) = biological target: T6, CaMKI(h) (Homo sapiens, UniProt Q14012); test: Kinase selectivity panel: CaMKI; format: biochemical; conditions: 1 µM
T6 construct: purchased Eurofins (Millipore) KinaseProfiler Diversity Panel
Method: as §1

CDK1/cyclinB(h) = biological target: T7, CDK1/cyclinB(h) (Homo sapiens, UniProt P06493); test: Kinase selectivity panel: CDK1/cyclinB; format: biochemical
T7 construct: purchased Eurofins (Millipore) KinaseProfiler Diversity Panel
Method: as §1

CDK7/cyclinH/MAT1(h) = biological target: T8, CDK7/cyclinH/MAT1(h) (Homo sapiens, UniProt P50613); test: Kinase selectivity panel: CDK7/cyclinH/MAT1; format: biochemical
T8 construct: purchased Eurofins (Millipore) KinaseProfiler Diversity Panel
Method: as §1

CDK9/cyclin T1(h) = biological target: T9, CDK9/cyclin T1(h) (Homo sapiens, UniProt P50750); test: Kinase selectivity panel: CDK9/cyclin T1; format: biochemical
T9 construct: purchased Eurofins (Millipore) KinaseProfiler Diversity Panel
T9 sequence (P50750 whole entry): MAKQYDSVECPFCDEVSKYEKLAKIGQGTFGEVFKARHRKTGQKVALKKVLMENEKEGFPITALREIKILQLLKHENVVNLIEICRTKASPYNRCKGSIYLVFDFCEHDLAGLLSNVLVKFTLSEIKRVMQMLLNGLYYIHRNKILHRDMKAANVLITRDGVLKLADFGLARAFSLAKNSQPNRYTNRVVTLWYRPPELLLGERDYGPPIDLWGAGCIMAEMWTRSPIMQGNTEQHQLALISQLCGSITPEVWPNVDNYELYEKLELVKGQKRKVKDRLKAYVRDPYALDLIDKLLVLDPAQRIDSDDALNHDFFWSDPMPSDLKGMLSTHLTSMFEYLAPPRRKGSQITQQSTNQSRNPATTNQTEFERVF
T9 sequence (O60563 whole entry partner): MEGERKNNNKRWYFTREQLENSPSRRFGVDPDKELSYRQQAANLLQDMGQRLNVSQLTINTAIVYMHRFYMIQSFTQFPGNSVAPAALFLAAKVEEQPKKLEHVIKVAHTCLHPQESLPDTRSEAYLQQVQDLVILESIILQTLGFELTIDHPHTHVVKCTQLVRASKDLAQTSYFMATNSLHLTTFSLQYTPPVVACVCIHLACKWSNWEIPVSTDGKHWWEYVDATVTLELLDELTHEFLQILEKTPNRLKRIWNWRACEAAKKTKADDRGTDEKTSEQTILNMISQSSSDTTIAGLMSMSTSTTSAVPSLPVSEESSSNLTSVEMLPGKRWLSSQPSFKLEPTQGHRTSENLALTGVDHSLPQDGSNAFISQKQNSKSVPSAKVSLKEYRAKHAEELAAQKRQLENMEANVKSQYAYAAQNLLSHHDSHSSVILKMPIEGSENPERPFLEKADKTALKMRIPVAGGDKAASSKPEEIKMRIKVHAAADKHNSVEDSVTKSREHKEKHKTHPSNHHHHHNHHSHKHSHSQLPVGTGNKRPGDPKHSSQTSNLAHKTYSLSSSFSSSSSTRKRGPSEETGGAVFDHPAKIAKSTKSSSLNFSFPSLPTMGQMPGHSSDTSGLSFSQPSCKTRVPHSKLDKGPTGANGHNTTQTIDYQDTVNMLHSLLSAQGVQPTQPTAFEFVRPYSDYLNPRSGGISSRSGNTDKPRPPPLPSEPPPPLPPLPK
Method: as §1

CK1γ1(h) = biological target: T10, CK1γ1(h) (Homo sapiens, UniProt Q9HCP0); test: Kinase selectivity panel: CK1γ1; format: biochemical; conditions: 1 µM
T10 construct: purchased Eurofins (Millipore) KinaseProfiler Diversity Panel
Method: as §1

c-RAF(h) = biological target: T11, c-RAF(h) (Homo sapiens, UniProt P04049); test: Kinase selectivity panel: c-RAF; format: biochemical
T11 construct: purchased Eurofins (Millipore) KinaseProfiler Diversity Panel
T11 sequence (P04049 whole entry): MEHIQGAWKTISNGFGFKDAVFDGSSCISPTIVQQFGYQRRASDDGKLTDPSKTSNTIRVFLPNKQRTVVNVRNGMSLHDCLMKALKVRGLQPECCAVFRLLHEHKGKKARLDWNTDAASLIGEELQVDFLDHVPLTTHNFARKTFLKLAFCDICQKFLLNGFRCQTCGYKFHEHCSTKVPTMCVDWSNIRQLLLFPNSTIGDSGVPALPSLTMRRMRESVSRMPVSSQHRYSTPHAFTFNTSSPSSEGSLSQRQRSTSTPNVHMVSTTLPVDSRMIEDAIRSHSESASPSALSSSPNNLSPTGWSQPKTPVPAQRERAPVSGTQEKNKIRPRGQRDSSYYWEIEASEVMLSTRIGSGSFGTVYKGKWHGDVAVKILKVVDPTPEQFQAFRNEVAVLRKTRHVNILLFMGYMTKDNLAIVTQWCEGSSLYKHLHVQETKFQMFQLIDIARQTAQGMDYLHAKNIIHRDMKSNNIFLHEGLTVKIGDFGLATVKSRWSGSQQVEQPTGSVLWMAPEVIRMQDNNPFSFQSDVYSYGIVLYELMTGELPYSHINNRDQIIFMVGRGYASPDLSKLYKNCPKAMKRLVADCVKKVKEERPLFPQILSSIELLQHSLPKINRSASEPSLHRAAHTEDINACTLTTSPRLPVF
Method: as §1

eEF-2K(h) = biological target: T12, eEF-2K(h) (Homo sapiens, UniProt O00418); test: Kinase selectivity panel: eEF-2K; format: biochemical
T12 construct: purchased Eurofins (Millipore) KinaseProfiler Diversity Panel
Method: as §1

EphB4(h) = biological target: T13, EphB4(h) (Homo sapiens, UniProt P54760); test: Kinase selectivity panel: EphB4; format: biochemical
T13 construct: purchased Eurofins (Millipore) KinaseProfiler Diversity Panel
Method: as §1

Fyn(h) = biological target: T14, Fyn(h) (Homo sapiens, UniProt P06241); test: Kinase selectivity panel: Fyn; format: biochemical
T14 construct: purchased Eurofins (Millipore) KinaseProfiler Diversity Panel
T14 sequence (P06241 whole entry): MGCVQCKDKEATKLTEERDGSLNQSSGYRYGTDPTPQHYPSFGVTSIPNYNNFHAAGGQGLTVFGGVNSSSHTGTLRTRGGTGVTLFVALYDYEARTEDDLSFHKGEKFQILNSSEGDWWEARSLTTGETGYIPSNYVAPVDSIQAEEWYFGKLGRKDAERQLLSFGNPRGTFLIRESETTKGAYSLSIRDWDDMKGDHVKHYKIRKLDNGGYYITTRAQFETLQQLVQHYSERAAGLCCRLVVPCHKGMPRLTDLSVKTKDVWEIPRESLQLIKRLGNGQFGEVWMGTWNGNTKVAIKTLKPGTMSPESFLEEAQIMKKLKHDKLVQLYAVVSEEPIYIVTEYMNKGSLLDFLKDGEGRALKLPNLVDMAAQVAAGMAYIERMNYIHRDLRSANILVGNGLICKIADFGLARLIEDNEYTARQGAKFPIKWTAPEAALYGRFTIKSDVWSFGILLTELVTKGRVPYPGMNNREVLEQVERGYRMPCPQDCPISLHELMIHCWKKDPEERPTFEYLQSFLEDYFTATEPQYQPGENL
Method: as §1

GSK3β(h) = biological target: T15, GSK3β(h) (Homo sapiens, UniProt P49841); test: Kinase selectivity panel: GSK3β; format: biochemical; conditions: 1 µM
T15 construct: purchased Eurofins (Millipore) KinaseProfiler Diversity Panel
Method: as §1

IKKε(h) = biological target: T16, IKKε(h) (Homo sapiens, UniProt Q14164); test: Kinase selectivity panel: IKKε; format: biochemical
T16 construct: purchased Eurofins (Millipore) KinaseProfiler Diversity Panel
Method: as §1

IRAK4(h) = biological target: T17, IRAK4(h) (Homo sapiens, UniProt Q9NWZ3); test: Kinase selectivity panel: IRAK4; format: biochemical
T17 construct: purchased Eurofins (Millipore) KinaseProfiler Diversity Panel
Method: as §1

JAK1(h) = biological target: T18, JAK1(h) (Homo sapiens, UniProt P23458); test: Kinase selectivity panel: JAK1; format: biochemical
T18 construct: purchased Eurofins (Millipore) KinaseProfiler Diversity Panel
Method: as §1

JAK2(h) = biological target: T19, JAK2(h) (Homo sapiens, UniProt O60674); test: Kinase selectivity panel: JAK2; format: biochemical; conditions: 1 µM
T19 construct: purchased Eurofins (Millipore) KinaseProfiler Diversity Panel
Method: as §1

LOK(h) = biological target: T20, LOK(h) (Homo sapiens, UniProt O94804); test: Kinase selectivity panel: LOK; format: biochemical
T20 construct: purchased Eurofins (Millipore) KinaseProfiler Diversity Panel
T20 sequence (O94804 whole entry): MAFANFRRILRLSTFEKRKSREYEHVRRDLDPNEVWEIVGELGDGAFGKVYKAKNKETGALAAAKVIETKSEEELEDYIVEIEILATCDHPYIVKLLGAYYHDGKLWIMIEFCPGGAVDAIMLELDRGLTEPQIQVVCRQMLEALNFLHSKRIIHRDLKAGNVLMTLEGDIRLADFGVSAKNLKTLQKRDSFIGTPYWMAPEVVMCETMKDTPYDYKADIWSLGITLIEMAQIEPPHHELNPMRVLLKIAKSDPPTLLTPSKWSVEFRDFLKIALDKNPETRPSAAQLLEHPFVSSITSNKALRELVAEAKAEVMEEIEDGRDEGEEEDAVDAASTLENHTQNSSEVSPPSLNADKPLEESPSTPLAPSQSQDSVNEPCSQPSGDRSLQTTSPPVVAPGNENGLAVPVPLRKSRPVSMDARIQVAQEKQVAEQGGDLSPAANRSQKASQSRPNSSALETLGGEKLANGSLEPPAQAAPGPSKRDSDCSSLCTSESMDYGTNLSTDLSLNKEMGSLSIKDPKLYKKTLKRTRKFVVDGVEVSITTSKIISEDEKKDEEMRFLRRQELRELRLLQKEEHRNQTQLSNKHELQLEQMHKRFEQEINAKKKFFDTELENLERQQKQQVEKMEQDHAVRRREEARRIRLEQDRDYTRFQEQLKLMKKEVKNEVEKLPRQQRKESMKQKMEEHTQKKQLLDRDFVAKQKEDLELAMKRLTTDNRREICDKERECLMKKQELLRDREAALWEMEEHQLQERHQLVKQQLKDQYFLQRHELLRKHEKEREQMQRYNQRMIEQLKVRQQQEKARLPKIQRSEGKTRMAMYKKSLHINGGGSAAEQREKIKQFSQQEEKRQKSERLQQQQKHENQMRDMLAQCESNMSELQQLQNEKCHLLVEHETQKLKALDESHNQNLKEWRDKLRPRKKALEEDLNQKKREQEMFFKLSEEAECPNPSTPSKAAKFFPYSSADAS
Method: as §1

Lyn(h) = biological target: T21, Lyn(h) (Homo sapiens, UniProt P07948); test: Kinase selectivity panel: Lyn; format: biochemical
T21 construct: purchased Eurofins (Millipore) KinaseProfiler Diversity Panel
T21 sequence (P07948 whole entry): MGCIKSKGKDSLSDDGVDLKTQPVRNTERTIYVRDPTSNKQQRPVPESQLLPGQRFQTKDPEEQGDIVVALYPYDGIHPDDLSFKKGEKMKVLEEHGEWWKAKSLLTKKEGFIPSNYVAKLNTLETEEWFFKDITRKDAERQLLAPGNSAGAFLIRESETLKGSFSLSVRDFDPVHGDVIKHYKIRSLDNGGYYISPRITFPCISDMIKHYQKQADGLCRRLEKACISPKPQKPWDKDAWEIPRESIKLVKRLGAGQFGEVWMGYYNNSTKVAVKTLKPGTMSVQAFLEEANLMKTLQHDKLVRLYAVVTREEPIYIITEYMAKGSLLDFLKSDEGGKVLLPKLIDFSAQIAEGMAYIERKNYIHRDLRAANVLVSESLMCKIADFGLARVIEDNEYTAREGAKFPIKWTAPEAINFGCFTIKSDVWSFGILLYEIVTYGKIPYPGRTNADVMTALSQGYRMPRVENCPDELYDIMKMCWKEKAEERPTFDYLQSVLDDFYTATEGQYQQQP
Method: as §1

MAPKAP-K2(h) = biological target: T22, MAPKAP-K2(h) (Homo sapiens, UniProt P49137); test: Kinase selectivity panel: MAPKAP-K2; format: biochemical; conditions: 1 µM
T22 construct: purchased Eurofins (Millipore) KinaseProfiler Diversity Panel
Method: as §1

MEK1(h) = biological target: T23, MEK1(h) (Homo sapiens, UniProt Q02750); test: Kinase selectivity panel: MEK1; format: biochemical; conditions: 1 µM
T23 construct: purchased Eurofins (Millipore) KinaseProfiler Diversity Panel
Method: as §1

NEK2(h) = biological target: T24, NEK2(h) (Homo sapiens, UniProt P51955); test: Kinase selectivity panel: NEK2; format: biochemical; conditions: 1 µM
T24 construct: purchased Eurofins (Millipore) KinaseProfiler Diversity Panel
Method: as §1

PDGFRβ(h) = biological target: T25, PDGFRβ(h) (Homo sapiens, UniProt P09619); test: Kinase selectivity panel: PDGFRβ; format: biochemical
T25 construct: purchased Eurofins (Millipore) KinaseProfiler Diversity Panel
Method: as §1

Plk3(h) = biological target: T26, Plk3(h) (Homo sapiens, UniProt Q9H4B4); test: Kinase selectivity panel: Plk3; format: biochemical; conditions: 1 µM
T26 construct: purchased Eurofins (Millipore) KinaseProfiler Diversity Panel
Method: as §1

RIPK2(h) = biological target: T27, RIPK2(h) (Homo sapiens, UniProt O43353); test: Kinase selectivity panel: RIPK2; format: biochemical
T27 construct: purchased Eurofins (Millipore) KinaseProfiler Diversity Panel
T27 sequence (O43353 whole entry): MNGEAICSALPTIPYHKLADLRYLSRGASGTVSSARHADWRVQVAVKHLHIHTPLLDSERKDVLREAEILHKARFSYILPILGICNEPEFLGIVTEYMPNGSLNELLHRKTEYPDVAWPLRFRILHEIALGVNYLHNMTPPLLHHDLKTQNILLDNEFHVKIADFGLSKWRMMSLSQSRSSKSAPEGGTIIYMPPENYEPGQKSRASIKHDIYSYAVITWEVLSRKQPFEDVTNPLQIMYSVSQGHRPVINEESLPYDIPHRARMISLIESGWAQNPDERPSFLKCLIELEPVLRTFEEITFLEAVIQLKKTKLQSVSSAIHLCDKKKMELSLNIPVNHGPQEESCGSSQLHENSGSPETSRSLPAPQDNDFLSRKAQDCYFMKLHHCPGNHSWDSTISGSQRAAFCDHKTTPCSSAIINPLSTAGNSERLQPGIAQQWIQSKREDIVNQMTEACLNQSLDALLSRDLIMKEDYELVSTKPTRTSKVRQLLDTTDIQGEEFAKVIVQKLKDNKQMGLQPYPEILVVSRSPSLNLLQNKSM
Method: as §1

Syk(h) = biological target: T28, Syk(h) (Homo sapiens, UniProt P43405); test: Kinase selectivity panel: Syk; format: biochemical
T28 construct: purchased Eurofins (Millipore) KinaseProfiler Diversity Panel
Method: as §1

TYK2(h) = biological target: T29, TYK2(h) (Homo sapiens, UniProt P29597); test: Kinase selectivity panel: TYK2; format: biochemical; conditions: 1 µM
T29 construct: purchased Eurofins (Millipore) KinaseProfiler Diversity Panel
Method: as §1

PI3 Kinase (p120g)(h) = biological target: T30, PI3 Kinase (p120g)(h) (Homo sapiens, UniProt P48736); test: Kinase selectivity panel: PI3 Kinase (p120g); format: biochemical; conditions: 1 µM
T30 construct: purchased Eurofins (Millipore) KinaseProfiler Diversity Panel
Method: as §1

[3] = biological target: T31, PI3 Kinase (p110d/p85a)(h) (Homo sapiens, UniProt O00329); test: Kinase selectivity panel: PI3 Kinase (p110d/p85a); format: biochemical; conditions: 1 µM
T31 construct: purchased Eurofins (Millipore) KinaseProfiler Diversity Panel
Method: as §1

T1 sequence (O43353 whole entry): as above

## c1cc(-c2ccc3nccc(Nc4ccc5scnc5c4)c3c2)ccn1 [Compound 14, N-(6-(pyridin-4-yl)quinolin-4-yl)benzo[d]thiazol-5-amine]
RIPK2
  LipE: 4.40
[1]
  inhibition of MDP-induced TNF-α secretion: strong inhibitory activity on MDP-induced TNF-α secretion with a dose-dependent manner
[2]
  CL: 9.64 mL/min/kg
  half-life: 1.6 h
AO oxidase
  AO oxidase substrate: metabolic substrates of AO oxidase
ALK(h)
  ALK remaining activity (% of control): 77
Aurora-A(h)
  Remaining kinase activity (% of control): 95
BTK(h); 1 µM
  remaining BTK activity (% of control): 4
BTK(h); at 1 µM
  inhibition at 1 µM: > 90%
CaMKI(h)
  percent kinase activity remaining: 97
CDK1/cyclinB(h)
  CDK1/cyclinB remaining activity (% of control) with compound 14 at 1 µM: 90
CDK7/cyclinH/MAT1(h)
  CDK7/cyclinH/MAT1(h), 14 @ 1 µM: 83
CDK9/cyclin T1(h); 1 µM
  remaining kinase activity (%): 41
CDK9/cyclin T1(h); at 1 µM
  inhibition at 1 µM: 50 to 90%
CK1γ1(h)
  Remaining kinase activity (% of control): 93
c-RAF(h)
  c-RAF remaining activity (% of control) with compound 14 at 1 µM: 65
eEF-2K(h)
  remaining kinase activity (% of control) with compound 14 at 1 µM: 102
EphB4(h)
  EphB4 remaining activity (%) with compound 14 at 1 µM: 96
Fyn(h); 1 µM
  Fyn remaining activity (%): 0
Fyn(h); at 1 µM
  inhibition at 1 µM: > 90%
GSK3β(h)
  remaining kinase activity (%): 75
IKKε(h)
  Remaining IKKε activity at 1 µM (% of control): 106
IRAK4(h)
  Percent remaining IRAK4 activity with compound 14 at 1 µM: 107
JAK1(h)
  JAK1 remaining kinase activity with compound 14 at 1 µM (% of control): 105
JAK2(h)
  remaining kinase activity (%): 93
LOK(h); 1 µM
  LOK remaining activity (% of control): 44
LOK(h); at 1 µM
  inhibition at 1 µM: 50 to 90%
Lyn(h); 1 µM
  Remaining Lyn kinase activity (% of control): 3
Lyn(h); at 1 µM
  inhibition at 1 µM: > 90%
MAPKAP-K2(h)
  percent remaining MAPKAP-K2 activity: 95
MEK1(h)
  % remaining MEK1 activity: 105
NEK2(h)
  percent remaining NEK2 kinase activity with compound 14: 88
PDGFRβ(h)
  Remaining kinase activity at 1 µM (% of control): 64
Plk3(h)
  remaining Plk3 kinase activity (% of control): 86
RIPK2(h); 1 µM
  RIPK2 remaining activity (% of control): 3
RIPK2(h); at 1 µM
  inhibition at 1 µM: > 90%
Syk(h)
  % remaining kinase activity with compound 14 at 1 µM: 94
TYK2(h)
  kinase activity remaining (% of control): 108
PI3 Kinase (p120g)(h)
  Remaining kinase activity (% of control): 79
[3]
  Remaining kinase activity (% of control): 54
